20 compounds from patent publication US9045445B2, “Glycine transporter-1 inhibitors, methods of making them, and uses thereof” (Albany Molecular Research, Inc., priority 2010, dated 2015) can be followed below.

The target of assay [1] is T1, glycine transporter-1 (GlyT-1) (Homo sapiens, UniProt P48067).
T1 construct: JAR cells (ATCC#HTB-144), which endogenously express GlyT-1; host or cells: JAR human choriocarcinoma cells
T1 sequence (P48067 1-706): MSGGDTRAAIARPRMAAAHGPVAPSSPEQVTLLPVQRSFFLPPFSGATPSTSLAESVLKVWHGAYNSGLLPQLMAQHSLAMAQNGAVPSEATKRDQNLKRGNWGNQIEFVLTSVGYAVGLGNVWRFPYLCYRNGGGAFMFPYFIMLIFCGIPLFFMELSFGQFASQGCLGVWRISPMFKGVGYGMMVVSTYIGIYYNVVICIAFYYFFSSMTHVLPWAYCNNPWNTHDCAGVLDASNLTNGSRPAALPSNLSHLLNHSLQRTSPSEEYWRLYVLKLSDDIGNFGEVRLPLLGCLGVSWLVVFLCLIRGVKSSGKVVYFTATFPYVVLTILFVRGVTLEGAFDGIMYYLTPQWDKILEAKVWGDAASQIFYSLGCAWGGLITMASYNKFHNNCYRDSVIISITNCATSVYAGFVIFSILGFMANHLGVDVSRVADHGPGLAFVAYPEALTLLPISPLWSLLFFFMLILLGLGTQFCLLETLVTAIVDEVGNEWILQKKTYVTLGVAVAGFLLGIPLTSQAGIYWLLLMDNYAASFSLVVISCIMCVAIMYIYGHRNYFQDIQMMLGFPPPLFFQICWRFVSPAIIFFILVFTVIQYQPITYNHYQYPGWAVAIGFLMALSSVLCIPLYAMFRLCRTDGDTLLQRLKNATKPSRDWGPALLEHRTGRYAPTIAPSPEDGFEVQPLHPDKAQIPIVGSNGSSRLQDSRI
The assay can be described thus: [14C]glycine uptake assay in JAR cells endogenously expressing GlyT-1 (scintillation proximity). It counts as cell-based. Put shortly: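 Human choriocarcinoma JAR cells (endogenous GlyT-1) attached overnight, then pre-incubated 10 min at room temperature with compound in pH 7.4 Hepes uptake buffer containing 5 mM alanine and 0.75% DMSO. Uptake of 5 μM [14C]glycine over 3 h at 37 °C read by scintillation proximity; IC50 from four-parameter fit of nine-point curves.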

The target of assay [2] is T2, glycine transporter-2 (GlyT-2) (Homo sapiens, UniProt Q9Y345).
T2 construct: expressed in transfected cells
T2 sequence (Q9Y345 1-797): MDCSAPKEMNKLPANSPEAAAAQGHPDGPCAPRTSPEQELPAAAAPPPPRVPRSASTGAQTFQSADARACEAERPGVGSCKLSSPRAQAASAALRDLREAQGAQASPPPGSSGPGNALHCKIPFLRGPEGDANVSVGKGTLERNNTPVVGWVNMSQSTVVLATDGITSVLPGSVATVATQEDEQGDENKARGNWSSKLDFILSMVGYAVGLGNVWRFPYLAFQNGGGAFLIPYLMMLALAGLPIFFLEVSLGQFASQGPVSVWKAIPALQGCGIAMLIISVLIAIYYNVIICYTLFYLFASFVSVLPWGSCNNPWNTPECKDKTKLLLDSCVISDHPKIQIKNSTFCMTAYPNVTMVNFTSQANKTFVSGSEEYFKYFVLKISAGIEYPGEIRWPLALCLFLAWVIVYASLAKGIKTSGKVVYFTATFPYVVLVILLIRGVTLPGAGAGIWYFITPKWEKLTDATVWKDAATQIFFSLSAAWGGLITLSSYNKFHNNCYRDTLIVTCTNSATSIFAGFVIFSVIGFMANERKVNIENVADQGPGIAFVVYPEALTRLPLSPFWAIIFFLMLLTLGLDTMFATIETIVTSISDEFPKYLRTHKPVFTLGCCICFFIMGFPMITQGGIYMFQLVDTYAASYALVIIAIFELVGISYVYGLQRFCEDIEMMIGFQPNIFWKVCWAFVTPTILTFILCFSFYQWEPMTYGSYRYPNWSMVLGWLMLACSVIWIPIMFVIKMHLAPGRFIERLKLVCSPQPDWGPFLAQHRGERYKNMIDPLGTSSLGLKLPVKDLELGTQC
The assay can be described thus: [14C]glycine uptake assay in HEK-GlyT-2 transfected cells. It counts as cell-based. To be noted: HEK-GlyT-2 cells.

The mark [3] stands for this setting: JAR cells, [14C]glycine 5 μM, 3 hour incubation, read-out: GlyT-1 IC50.

Where a name gives a salt, the structure may show the parent alone. Read-outs that look alike come from different tables or passages of the source. Bounds are passed on as bounds.

Take `CCCS(=O)(=O)N1CCN(C2(CNC(=O)c3ccccc3OC)CCC(F)(F)CC2)CC1` [compound 133, N-((4,4-Difluoro-1-(4-(propylsulfonyl)piperazin-1-yl)cyclohexyl)methyl)-2-methoxybenzamide Hydrochloride]: the figures for the IC50 in assay [1] (setting [3]) and in assay [2] were 48 nM and > 75000 nM, respectively.
Regarding `CCCS(=O)(=O)N1CCN(C2(CNC(=O)c3ccccc3OC(F)(F)F)CCCCC2)CC1` [compound 4, N-((1-(4-(Propylsulfonyl)piperazin-1-yl)cyclohexyl)methyl)-2-(trifluoromethoxy) benzamide Hydrochloride], the IC50 in assay [1] (setting [3]) was found to be 22 nM; in assay [2], 39100 nM.
The matching figures for `CCCS(=O)(=O)N1CCN(C2(CNC(=O)c3ccccc3C(F)(F)F)CCC(F)(F)CC2)CC1` [compound 132, N-((4,4-Difluoro-1-(4-(propylsulfonyl)piperazin-1-yl)cyclohexyl)methyl)-2-(trifluoromethyl) benzamide Hydrochloride]: 64 nM and > 75000 nM.
The matching figures for `CCCS(=O)(=O)N1CCN(C2(CNC(=O)c3c(OC)cc(F)cc3SC)CCOCC2)CC1` [compound 122, 4-Fluoro-2-methoxy-6-(methylthio)-N-((4-(4-(propylsulfonyl)piperazin-1-yl)tetrahydro-2H-pyran-4-yl)methyl)benzamide Hydrochloride]: 95 nM and > 75000 nM.
In the same order, the values of `COc1cc(F)cc(SC)c1C(=O)NCC1(N2CCN(S(=O)(=O)CC3CC3)CC2)CCCCC1` [compound 82, N-((1-(4-(Cyclopropylmethyl-sulfonyl)piperazin-1-yl)cyclohexyl)methyl)-4-fluoro-2-methoxy-6-(methylthio)benzamide Hydrochloride] are 50 nM and > 75000 nM.
Regarding `CCCS(=O)(=O)N1CCN(C2(CNC(=O)c3cccc(C(F)(F)F)c3Cl)CCCCC2)CC1` [compound 22, 2-Chloro-N-((1-(4-(propylsulfonyl)piperazin-1-yl)cyclohexyl)methyl)-3-(trifluoromethyl) benzamide Hydrochloride], the IC50 in assay [1] (GlyT-1 IC50 (nM)) was determined as 77 nM; in assay [2] it was 41300 nM.
With `CC1CN(C2(CNC(=O)c3c(F)cccc3F)CCCCC2)CCN1S(=O)(=O)CC1CC1` (stereo not shown) [compound 117, N-((1-(4-(Cyclopropylmethyl-sulfonyl)-3-methylpiperazin-1-yl)cyclohexyl)methyl)-2,6-difluorobenzamide Hydrochloride], the figures for the IC50 in assay [1] (setting [3]) and in assay [2] were 1070 nM and > 75000 nM, respectively.
Consider `CCCS(=O)(=O)N1CCN(C2(CNC(=O)c3c(C)cccc3C)CCCCC2)CC1` [compound 47, 2,6-Dimethyl-N-((1-(4-(propylsulfonyl)piperazin-1-yl)cyclohexyl)methyl) benzamide Hydrochloride], for which the results for the IC50 in assay [1] (setting [3]) and in assay [2] were 12 nM and > 75000 nM, respectively.
Regarding `Cn1cnc(S(=O)(=O)N2CCN(C3(CNC(=O)c4c(F)cccc4F)CCCCC3)CC2)c1` [compound 98, 2,6-Difluoro-N-((1-(4-(1-methyl-1H-imidazol-4-ylsulfonyl)piperazin-1-yl)cyclohexyl)methyl) benzamide Hydrochloride], the IC50 in assay [1] (setting [3]) is 4 nM; in assay [2], > 75000 nM.
Take `CCCS(=O)(=O)N1CCN(C2(CNC(=O)c3c(C)cc(F)cc3OC)CCCCC2)CC1` [compound 19, 4-Fluoro-2-methoxy-6-methyl-N-((1-(4-(propyl-sulfonyl)piperazin-1-yl)cyclohexyl)methyl) benzamide Hydrochloride]: the half-maximal inhibitory concentration (IC50) in assay [1] (setting [3]) is 15 nM; in assay [2] it was 39000 nM.
Take `COc1cc(F)cc(SC)c1C(=O)NCC1(N2CCN(S(=O)(=O)c3cn(C)nn3)CC2)CCCC1` [compound 113, 4-Fluoro-2-methoxy-N-((1-(4-(1-methyl-1H-1,2,3-triazol-4-ylsulfonyl)piperazin-1-yl)cyclopentyl)methyl)-6-(methylthio)benzamide Hydrochloride]: the 50% inhibitory concentration (IC50) was 3 nM in assay [1] (setting [3]) and > 75000 nM in assay [2].
In the same order, the values of `CC(NC(=O)c1ccc(C(F)(F)F)cc1Cl)C1(N2CCN(S(=O)(=O)c3cn(C)nn3)CC2)CCC(F)(F)CC1` (racemic) [compound 222, (±)-2-Chloro-N-(1-(4,4-difluoro-1-(4-(1-methyl-1H-1,2,3-triazol-4-ylsulfonyl)piperazin-1-yl)cyclohexyl)ethyl)-4-(trifluoromethyl) benzamide Hydrochloride] are 1 nM and > 75000 nM.
In the same order, the values of `CCCS(=O)(=O)N1CCN(C2(CNC(=O)Cc3ccc(Cl)cc3)CCCCC2)CC1` [compound 13, 2-(4-Chlorophenyl)-N-((1-(4-(propylsulfonyl)piperazin-1-yl)cyclohexyl)methyl) acetamide Hydrochloride] are 1270 nM and > 75000 nM.
Consider `Cn1cnc(S(=O)(=O)N2CCN(C3(CNC(=O)c4ccc(Cl)cc4Cl)CCCCC3)CC2)c1` [compound 97, 2,4-Dichloro-N-((1-(4-(1-methyl-1H-imidazol-4-ylsulfonyl)piperazin-1-yl)cyclohexyl)methyl) benzamide Hydrochloride], for which the half-maximal inhibitory concentration (IC50) in assay [1] (setting [3]) is 2 nM; in assay [2], > 75000 nM.
On to `CCCS(=O)(=O)N1CCN(C2(CNC(=O)c3ccc(F)cc3C(F)(F)F)CCCCCC2)CC1` [compound 71, 4-Fluoro-N-((1-(4-(propylsulfonyl)piperazin-1-yl)cycloheptyl)methyl)-2-(trifluoromethyl)benzamide Hydrochloride], for which the values for the IC50 in assay [1] (setting [3]) and in assay [2] were 22 nM and > 75000 nM, respectively.
The matching figures for `CC(NC(=O)c1ccc(C(F)(F)F)cc1Cl)C1(N2CCN(S(=O)(=O)c3cn(C)nn3)CC2)CCC(F)(F)CC1` (stereo not shown) [compound 223, 2-Chloro-N-(1-(4,4-difluoro-1-(4-(1-methyl-1H-1,2,3-triazol-4-ylsulfonyl)piperazin-1-yl)cyclohexyl)ethyl)-4-(trifluoromethyl)benzamide Hydrochloride]: 33 nM and > 75000 nM.
Turning to `CCCS(=O)(=O)N1CCN(C2(CNC(=O)c3ccc(OC(F)(F)F)cc3)CCCCC2)CC1` [compound 6, N-((1-(4-(Propylsulfonyl)piperazin-1-yl)cyclohexyl)methyl)-4-(trifluoromethoxy) benzamide Hydrochloride], the 50% inhibitory concentration (IC50) in assay [1] (setting [3]) was 118 nM; in assay [2], 28600 nM.
The matching figures for `CCS(=O)(=O)N1CCN(C2(CNC(=O)c3c(Cl)cc(C(F)(F)F)cc3Cl)CCC(F)(F)CC2)CC1` [compound 207, 2,6-Dichloro-N-((1-(4-(ethylsulfonyl)piperazin-1-yl)-4,4-difluoro-cyclohexyl)methyl)-4-(trifluoromethyl) benzamide Hydrochloride]: 64 nM and > 75000 nM.
The matching figures for `Cn1cc(S(=O)(=O)N2CCN(C3(CNC(=O)c4cc(F)c(F)cc4Cl)CCC(F)(F)CC3)CC2)nn1` [compound 235, 2-Chloro-N-((4,4-difluoro-1-(4-(1-methyl-1H-1,2,3-triazol-4-ylsulfonyl)piperazin-1-yl)cyclohexyl)methyl)-4,5-difluorobenzamide Hydrochloride]: 3 nM and > 75000 nM.
For the compound `Cn1cc(S(=O)(=O)N2CCN(C3(CNC(=O)c4c(F)cc(Cl)cc4F)CCC(F)(F)CC3)CC2)nn1` [compound 230, 4-Chloro-N-((4,4-difluoro-1-(4-(1-methyl-1H-1,2,3-triazol-4-ylsulfonyl)piperazin-1-yl)cyclohexyl)methyl)-2,6-difluorobenzamide Hydrochloride], the figures for the IC50 in assay [1] (setting [3]) and in assay [2] were 3 nM and > 75000 nM, respectively.
